Experimental findings from patent US20100310688A1, “ACACIA EXTRACTS AND THEIR COMPOUNDS ON INHIBITION OF XANTHINE OXIDASE” (NATIONAL TAIWAN UNIVERSITY, priority 2009, published 2010) are described below.

The term inhibition denotes how much of the control response was suppressed. As usually defined, the EC50 is the midpoint of the concentration-response curve.

The target in experiment [1] is T1, xanthine oxidase (Homo sapiens, UniProt P47989). The experiment in a line: Inhibition mode determination by Lineweaver-Burk plot. It counts as biochemical. To be noted: 0.3, 0.4 or 0.6 mM substrate. Here is the method: 798 μL of 0.1 unit xanthine oxidase in 200 mM sodium pyrophosphate/sodium chloride buffer (soudium pyrophosphate/HCl, pH 7.5) were mixed with 2 μL of DMSO dissolved melanoxetin, 7,8,3′,4′-tetrahydroxyflavon or okanin in 96-well plate at 37° C. for 5 minutes. 0.3, 0.4, or 0.6 mM substrate dissolved in double distilled water were added to start the reaction. OD 295 nm absorbance was detected every one minute by ELISA reader for total eight minutes at ambient temperature. Excel software was used for analyzing the result of enzyme.
T1 sequence (P47989 whole entry, species assumed): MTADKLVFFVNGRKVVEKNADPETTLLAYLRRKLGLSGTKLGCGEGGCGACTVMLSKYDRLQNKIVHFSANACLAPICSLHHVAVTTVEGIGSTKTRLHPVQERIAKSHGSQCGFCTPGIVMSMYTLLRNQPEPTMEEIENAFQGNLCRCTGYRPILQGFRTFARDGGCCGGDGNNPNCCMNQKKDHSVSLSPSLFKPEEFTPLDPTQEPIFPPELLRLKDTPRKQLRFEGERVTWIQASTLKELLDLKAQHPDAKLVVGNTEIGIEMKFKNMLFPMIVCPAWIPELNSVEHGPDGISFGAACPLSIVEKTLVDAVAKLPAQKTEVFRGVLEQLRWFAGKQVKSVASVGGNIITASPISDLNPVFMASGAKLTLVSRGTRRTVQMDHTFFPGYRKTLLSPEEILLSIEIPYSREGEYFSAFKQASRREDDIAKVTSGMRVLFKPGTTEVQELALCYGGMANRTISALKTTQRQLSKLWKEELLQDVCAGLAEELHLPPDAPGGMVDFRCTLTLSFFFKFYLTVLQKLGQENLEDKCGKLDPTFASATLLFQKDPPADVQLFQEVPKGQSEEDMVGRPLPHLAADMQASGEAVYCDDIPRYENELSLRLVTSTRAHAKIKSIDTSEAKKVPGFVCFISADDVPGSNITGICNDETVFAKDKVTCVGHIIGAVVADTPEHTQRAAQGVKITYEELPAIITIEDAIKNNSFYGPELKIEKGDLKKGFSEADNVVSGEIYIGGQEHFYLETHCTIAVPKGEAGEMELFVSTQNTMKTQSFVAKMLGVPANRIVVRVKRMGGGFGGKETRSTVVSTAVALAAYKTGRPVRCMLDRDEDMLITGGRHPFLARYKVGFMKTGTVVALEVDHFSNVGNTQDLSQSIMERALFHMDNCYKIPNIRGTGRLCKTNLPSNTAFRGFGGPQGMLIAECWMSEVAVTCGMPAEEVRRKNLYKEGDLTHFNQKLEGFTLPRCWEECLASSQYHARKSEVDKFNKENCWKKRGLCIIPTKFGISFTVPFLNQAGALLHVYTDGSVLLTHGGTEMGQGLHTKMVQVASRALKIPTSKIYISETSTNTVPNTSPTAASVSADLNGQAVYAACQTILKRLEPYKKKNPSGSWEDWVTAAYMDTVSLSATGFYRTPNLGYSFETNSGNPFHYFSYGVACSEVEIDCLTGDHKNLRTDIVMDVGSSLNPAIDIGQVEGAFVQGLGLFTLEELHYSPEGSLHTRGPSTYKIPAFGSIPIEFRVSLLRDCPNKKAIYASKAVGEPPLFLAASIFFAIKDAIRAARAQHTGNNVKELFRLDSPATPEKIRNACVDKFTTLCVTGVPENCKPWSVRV

For experiment [2], the target named is T1, xanthine oxidase. The experiment in a line: Xanthine oxidase inhibition assay (uric acid formation, OD 295 nm). It counts as biochemical. To be noted: for EC50: isolated major compounds, read-out: EC50 of inhibitory activity on xanthine oxidase; for xanthine oxidase inhibitory activity as fold of allopurinol: relative to allopurinol EC50. The method, then: Various parts of Acacia confusa were cold extracted by ethanol for 3 times, 7 days for each time. The extraction solution was vacuum filtered with Whatman #1 filter paper to remove impurities. The filtered extraction solution was concentrated by rotatory vacuum evaporator and lyophilized by a lyophilizer for xanthine oxidase inhibition assay. This assay was detecting xanthine derived uric acid, which was catalyzed by xanthine oxidase, at specific absorbance of UV 295 nm. Therefore, 2 μL of various concentrations of sample were mixed with 798 μL of sodium pyrophosphate buffer (pH 7.5) and 0.1 U of xanthine oxidase for 5 min at 37° C. 200 μL of 0.6 mM xanthine were added and vortex to mix thoroughly, and measured OD 295 nm absorbance by UV/visible light spectrophotometer. Finally, xanthine oxidase inhibitory rate of extracts (%) was calculated.

In the case of `O=c1cc(-c2ccc(O)c(O)c2)oc2c(O)c(O)ccc12` [7,8,3′,4′-tetrahydroxyflavon], the “inhibition mode on xanthine oxidase (Lineweaver-Burk plot)” value (from here on “inhibition mode on xanthine oxidase”) in experiment [1] is given as “competitive inhibition mode”.

The compound `Oc1ncnc2[nH]ncc12` [allopurinol, reference compound] returned an inhibition at 5 µg/mL in experiment [2] (at concentration of 5 μg/mL) of 78%. In addition, the “inhibition mode on xanthine oxidase” value in experiment [1] was “competitive inhibition mode”.

In the case of `O=c1c(O)c(-c2ccc(O)c(O)c2)oc2c(O)c(O)ccc12` [melanoxetin, 3,7,8,3′,4′-pentahydroxyflavone], in experiment [2], the EC50 worked out at 274 nM and the “xanthine oxidase inhibitory activity as fold of allopurinol” value is 17 fold. Also, the “inhibition mode on xanthine oxidase” value in experiment [1] is “competitive inhibition mode”.

With `O=C(/C=C/c1ccc(O)c(O)c1)c1ccc(O)c(O)c1O` [okanin, 3,4,2′,3′,4′-pentahydroxy trans-chalcone], in experiment [2], the EC50 stood at 74 nM and the “xanthine oxidase inhibitory activity as fold of allopurinol” value is given as 63 fold. Moreover, the “inhibition mode on xanthine oxidase” value in experiment [1] is listed as “non-competitive inhibition mode”.
